Measurements from paper PMC3917480 (Bioorganic & medicinal chemistry, 2013).
Where a SMILES comes first, the peptide text is derived from it. The star is where a group is joined. X3 = O=C(c1ccc(N2CCNCC2)cn1)*; X5 = CC(C)COc1cccc(CC(=O)*)c1; X6 = CCCOc1cccc(CC(=O)*)c1; X2 = CCOc1cccc(CC(=O)*)c1

Key:
CDK2/cyclin A = CDK2/cyclin A (Homo sapiens, UniProt P20248); assay: CDK2A2 fluorescence polarization competitive binding assay; conditions: FLIP context
CDK4/cyclin D1 = CDK4/cyclin D1 (Homo sapiens, UniProt P24385); assay: CDK4D1 fluorescence polarization competitive binding assay; conditions: for binding affinity (in words), CDK4D1: FLIP context
Sequence of CDK4/cyclin D1 (P24385 whole entry): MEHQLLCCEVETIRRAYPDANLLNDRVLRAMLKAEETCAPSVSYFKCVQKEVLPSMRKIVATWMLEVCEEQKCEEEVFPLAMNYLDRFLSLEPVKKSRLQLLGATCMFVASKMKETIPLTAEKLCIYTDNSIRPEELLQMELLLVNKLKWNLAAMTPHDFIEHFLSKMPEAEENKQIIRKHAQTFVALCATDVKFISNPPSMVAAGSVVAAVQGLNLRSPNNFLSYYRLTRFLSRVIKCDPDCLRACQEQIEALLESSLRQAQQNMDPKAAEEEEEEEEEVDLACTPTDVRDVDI
Sequence of CDK4/cyclin D1 (P11802 whole entry partner): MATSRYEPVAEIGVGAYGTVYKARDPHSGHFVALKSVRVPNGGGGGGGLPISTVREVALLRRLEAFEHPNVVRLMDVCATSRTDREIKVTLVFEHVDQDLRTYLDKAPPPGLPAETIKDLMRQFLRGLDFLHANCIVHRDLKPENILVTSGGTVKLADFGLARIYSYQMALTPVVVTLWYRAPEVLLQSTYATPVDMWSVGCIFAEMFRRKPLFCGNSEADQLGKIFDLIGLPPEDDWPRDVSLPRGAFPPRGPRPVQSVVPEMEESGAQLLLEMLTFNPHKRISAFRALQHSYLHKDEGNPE

| SMILES | binding affinity (in words), CDK2A2 (CDK2/cyclin A) | binding affinity (in words), CDK4D1 (CDK4/cyclin D1) | increased potency relative to 525 in CDK4D1 (CDK4/cyclin D1; relative to 525) [fold] |
| --- | --- | --- | --- |
| CCCOc1cccc(CC(=O)N[C@@H](CCCNC(=N)N)C(=O)N[C@@H](CC(C)C)C(=O)N[C@H](C(=O)N[C@@H](Cc2ccccc2)C(N)=O)[C@@H](C)CC)c1 [compound 5853] (X6-RLIF-NH2) | None of these analogs in the FLIP context possessed appreciable binding affinity | None of these analogs in the FLIP context possessed appreciable binding affinity | – |
| CCOc1cccc(CC(=O)N[C@@H](CCCNC(=N)N)C(=O)N[C@@H](CC(C)C)C(=O)N[C@H](C(=O)N[C@@H](Cc2ccccc2)C(N)=O)[C@@H](C)CC)c1 [compound 5854] (X2-RLIF-NH2) | None of these analogs in the FLIP context possessed appreciable binding affinity | None of these analogs in the FLIP context possessed appreciable binding affinity | – |
| CC[C@H](C)[C@H](NC(=O)[C@H](CC(C)C)NC(=O)[C@H](CCCNC(=N)N)NC(=O)Cc1cccc(OCC(C)C)c1)C(=O)N[C@@H](Cc1ccccc1)C(N)=O [compound 5855] (X5-RLIF-NH2) | None of these analogs in the FLIP context possessed appreciable binding affinity | None of these analogs in the FLIP context possessed appreciable binding affinity | – |
| CC[C@H](C)[C@H](NC(=O)[C@H](CC(C)C)NC(=O)[C@H](CCCNC(=N)N)NC(=O)c1ccc(N2CCNCC2)cn1)C(=O)N[C@@H](Cc1ccccc1)C(N)=O [compound 5856] (X3-RLIF-NH2) | – | – | 2 |
